# Numbered stars: 1 amine (or outer) side, 2 acyl side, 3 side chain; on linkers, the order of the positions; unused ones are H or OH. Bridge positions count the residues as written; N and C are the ends. Square brackets hold non-standard residues; d marks the D form. Peptide text beside a SMILES is read from it. * marks the point of attachment. ξ: configuration not given here. Orn(4R-OH,5R-OCH2CH2NMe3+) = C[N+](C)(C)CCO[C@@H](N[*:3])[C@H](O)C[C@H](N[*:1])C(=O)[*:2]; pTerphenylCO(4''-OnC5H11) = CCCCCOc1ccc(-c2ccc(-c3ccc(C(=O)*)cc3)cc2)cc1; hTyr(3S-OH,4S-OH) = N[C@H](C(=O)O)[C@H](O)[C@@H](O)c1ccc(O)cc1; X1 = C[C@H]1CN([*:1])C(C(=O)[*:2])C1O; Hyp = O=C(O)[C@@H]1C[C@@H](O)CN1; ξT = CC(O)C(N)C(=O)O
# What was measured:
# [1] = test system: C. glabrata; experiment: In vitro susceptibility testing (CLSI M27-A3); format: cell-based, Candida glabrata; conditions: Nakaseomyces glabratus, 24 h
# Protocol: Strains. Ten clinical Candida strains were used for the in vivo treatment studies, including four C. albicans, three C. glabrata, and three C. parapsilosis strains (Table 18). This group was selected to encompass phenotypic variability in susceptibility to triazoles and echinocandins and based on similar fitness in the animal model as defined by the amount of growth in control animals over 24 h. The organisms were maintained, grown, and quantified on Sabouraud's dextrose agar (SDA) plates.
# In vitro susceptibility testing. All isolates were tested in accordance with the standards in CLSI document M27-A3. The MICs were determined visually after 24 h of incubation as the lowest concentration of drug that causes a significant diminution (≥50%) of growth compared to controls. MICs were determined on three separate occasions in duplicate.
# [2] = test system: C. glabrata; experiment: Neutropenic murine disseminated candidiasis model, PK/PD target determination; format: in vivo, Candida glabrata
# Protocol: Infection model. A neutropenic, murine, disseminated candidiasis model was used for the treatment studies. The mice were rendered neutropenic (polymorphonuclear cell count, <100/mm3) by injecting 150 mg/kg of cyclophosphamide (Mead Johnson Pharmaceuticals, Evansville, IN) subcutaneously 4 days before infection, 100 mg/kg of cyclophosphamide 1 day before infection, and additional cyclophosphamide doses (100 mg/kg) on Day 2 and Day 4 after infection to ensure neutropenia throughout the 168 h (7 d) study period. Three mice were included in each treatment and control group.
# The organisms were subcultured on SDA plates 24 h prior to infection. The inoculum was prepared by placing 3 to 5 colonies into 5 ml of sterile pyrogen-free 0.15 M NaCl warmed to 35° C. The final inoculum was adjusted to a 0.6 transmittance at 530 nm. The fungal count of the inoculum determined by viable counts on SDA was 6.1±0.2 log10 CFU/ml.
# Disseminated infection with the Candida strains was achieved by injection of 0.1 ml of the inoculum via the lateral tail vein 2 h prior to the start of antifungal therapy. At the end of the study period, the animals were sacrificed by CO2 asphyxiation. The kidneys of each mouse were aseptically removed and placed in 0.15 M NaCl at 4° C. The kidneys were homogenized and serially diluted 1:10, and the aliquots were plated onto SDA for viable fungal colony counts after incubation for 24 h at 35° C. The lower limit of detection was 100 CFU/ml. The results are expressed as the mean CFU/kidney for three mice.
# Treatment efficacy and pharmacodynamic target determination of CD101. Neutropenic mice were infected with one of 10 Candida strains as described above. […] Five dose levels that varied from 0.25 to 64 mg/kg were administered once in a 0.2-ml volume by IP route for the 168 h study period. Due to enhanced effect against single isolate, additional studies at 0.0156 and 0.0625 mg/kg was examined for C. glabrata 5592. Groups of three mice were used for each dosing regimen and control group. At the end of the treatment period (168 h), the mice were euthanized, and their kidneys were immediately processed for CFU determination as described above.
# Data analysis. A sigmoid dose-effect (Hill) model was used to measure the in vivo potency of CD101. The efficacy endpoints included the dose level required to produce a 24 h net static effect (no change in organism burden compared to that at the start of therapy) and the dose required to achieve a 1-log10 reduction in colony counts (relative to the burden at the start of therapy), when achieved. The maximum response (Emax) was measured as the difference in the number of CFU/kidney relative to that of the untreated control animals. The doses associated with the stasis and 1-log10 endpoint for each strain was calculated using the equation: log10 D=[log10 (E/(Emax−E))/N]+log10 ED50, where D is the drug dose, E is the control growth in untreated animals, Emax is the maximal effect, Nis the slope of the dose-response relationship, and ED50 is the dose needed to achieve 50% of the maximal effect. The associated AUC/MIC targets were then calculated for each strain. […] The calculations were performed using both total and free drug concentrations. The coefficient of determination (R^2) was used to estimate the variance that might be due to regression with the PK/PD index. Kruskal-Wallis one-way analysis of variance (ANOVA) was used to determine if the differences in PK/PD targets were significant between the species.
# [3] = Clinical pharmacokinetics in healthy adults (Phase 1); format: in vivo, human; conditions: for average 24 h AUC (free drug) over a 7 day period / free drug AUC0-168: human
# Excerpt: The in vitro activity of CD101 was previously evaluated as part of the SENTRY international surveillance program using CLSI broth microdilution methodology (M38-A2, M27-A3; Pfaller, et al 2017). […] These susceptibility data were then compared graphically to CD101 plasma concentrations from studies in healthy adults, adjusted for plasma protein binding. Nonclinical efficacy in a murine model of Pneumocystis pneumonia were also considered to evaluate CD101 doses for clinical investigation of antifungal prophylaxis.
# [4] = Median of 3 C. glabrata strains
smiles,measurement,setting,value
"CCCCCOc1ccc(-c2ccc(-c3ccc(C(=O)N[C@H]4C[C@@H](O)[C@@H](OCC[N+](C)(C)C)NC(=O)C5C(O)[C@@H](C)CN5C(=O)[C@H]([C@@H](C)O)NC(=O)[C@H]([C@H](O)[C@@H](O)c5ccc(O)cc5)NC(=O)[C@@H]5C[C@@H](O)CN5C(=O)C(C(C)O)NC4=O)cc3)cc2)cc1 (stereo partly drawn) [CD101] ({pTerphenylCO(4''-OnC5H11)}-[Orn(4R-OH,5R-OCH2CH2NMe3+)][ξT][Hyp][hTyr(3S-OH,4S-OH)]T[X1]; lactam 1-C)",MIC,[1]; strain 5592,0.125 mg/L
same,MIC,[1]; strain 10956 (FKS2_HS1_F659V),1 mg/L
same,MIC,[1]; strain 35315,0.5 mg/L
same,1 log kill 24 h Ave Free drug AUC/MIC,[2]; 5592,0.36
same,1 log kill free drug AUC0-168 h/MIC,[2]; 5592,2.54
same,1 log kill total drug AUC0-168 h/MIC,[2]; 5592,317.50
same,Stasis 24 h Ave free drug AUC/MIC,[2]; 5592,0.05
same,Stasis free drug AUC0-168 h/MIC,[2]; 5592,0.35
same,Stasis total drug AUC0-168 h/MIC,[2]; 5592,43.16
same,1 log kill dose,"[2]; 5592, single IP dose, 168 h",0.43 mg/kg
same,Static dose,"[2]; 5592, single IP dose, 168 h",0.06 mg/kg
same,1 log kill 24 h Ave Free drug AUC/MIC,[2]; 10956,1.20
same,1 log kill free drug AUC0-168 h/MIC,[2]; 10956,8.42
same,1 log kill total drug AUC0-168 h/MIC,[2]; 10956,1052.22
same,Stasis 24 h Ave free drug AUC/MIC,[2]; 10956,0.48
same,Stasis free drug AUC0-168 h/MIC,[2]; 10956,3.35
same,Stasis total drug AUC0-168 h/MIC,[2]; 10956,418.68
same,1 log kill dose,"[2]; 10956, single IP dose, 168 h",17.25 mg/kg
same,Static dose,"[2]; 10956, single IP dose, 168 h",6.29 mg/kg
same,1 log kill 24 h Ave Free drug AUC/MIC,[2]; 35315,0.42
same,1 log kill free drug AUC0-168 h/MIC,[2]; 35315,2.94
same,1 log kill total drug AUC0-168 h/MIC,[2]; 35315,367.06
same,Stasis 24 h Ave free drug AUC/MIC,[2]; 35315,0.07
same,Stasis free drug AUC0-168 h/MIC,[2]; 35315,0.50
same,Stasis total drug AUC0-168 h/MIC,[2]; 35315,62.50
same,1 log kill dose,"[2]; 35315, single IP dose, 168 h",2.39 mg/kg
same,Static dose,"[2]; 35315, single IP dose, 168 h",0.34 mg/kg
same,1 log kill 24 h Ave Free drug AUC/MIC,[2]; Mean of 3 C. glabrata strains,0.66
same,1 log kill dose,[2]; Mean of 3 C. glabrata strains,6.69 mg/kg
same,1 log kill free drug AUC0-168 h/MIC,[2]; Mean of 3 C. glabrata strains,4.63
same,1 log kill total drug AUC0-168 h/MIC,[2]; Mean of 3 C. glabrata strains,578.93
same,Stasis 24 h Ave free drug AUC/MIC,[2]; Mean of 3 C. glabrata strains,0.20
same,Stasis free drug AUC0-168 h/MIC,[2]; Mean of 3 C. glabrata strains,1.40
same,Stasis total drug AUC0-168 h/MIC,[2]; Mean of 3 C. glabrata strains,174.78
same,Static dose,[2]; Mean of 3 C. glabrata strains,2.23 mg/kg
same,1 log kill 24 h Ave Free drug AUC/MIC,[2]; [4],0.42
same,1 log kill dose,[2]; [4],2.39 mg/kg
same,1 log kill free drug AUC0-168 h/MIC,[2]; [4],2.94
same,1 log kill total drug AUC0-168 h/MIC,[2]; [4],367.06
same,Stasis 24 h Ave free drug AUC/MIC,[2]; [4],0.07
same,Stasis free drug AUC0-168 h/MIC,[2]; [4],0.5
same,Stasis total drug AUC0-168 h/MIC,[2]; [4],62.50
same,Static dose,[2]; [4],0.34 mg/kg
same,kill at high doses,"[2]; a number of strains, kidney burden, 168 h",> 2 log10
same,free AUC/MIC targets lower than the three comparator echinocandins,[2]; in vivo,> 10 fold
same,plasma concentrations relative to MEC90,[3]; 400 mg and 200 mg,above the MEC90 for A. fumigatus for 7 days
same,mean unbound plasma concentrations relative to MIC90,"[3]; Phase 1 subjects, single dose of 400 mg",above the MIC90 for C. albicans for seven days
same,average 24 h AUC (free drug) over a 7 day period,[3]; 200 mg dose,~2.2 µg·h/mL
same,free drug AUC0-168,[3]; 200 mg dose,15.4 µg·h/mL
same,average 24 h AUC (free drug) over a 7 day period,[3]; 400 mg dose,approximately 4.3 mg*h/L
same,free drug AUC0-168,[3]; 400 mg dose,30.2 µg·h/mL

# Source: patent US20240076347A1, “METHODS FOR PREVENTING FUNGAL INFECTIONS” (Cidara Therapeutics, Inc., priority 2016, published 2024)
